Experimental findings from patent US10280179B2, “Spiroquinoxaline derivatives as inhibitors of non-apoptotic regulated cell-death” (Helmholtz Zentrum Munchen—Deutches Forschungszentrum Fur …, priority 2013, dated 2019) are described below.

For one test, the system named is SH-SY5Y cells. Nature of the test: TNF-alpha-induced apoptosis, specificity for non-apoptotic cell death (Example B.3). The test is classed as cell-based, human. As to conditions: compound 1 μM, TNF-alpha 10 ng/mL, FIG. 1. The procedure:
SH-SY5Y cells were propagated and seeded in 96-well plates, together with compound N-1, N-2, N-10 of Table 1-N (FIG. 1(a)), compound O/S-6 or O/S-3 of Table 1-O/S (FIG. 1(b)), or compound C-12, C-91, or C-205 of Table 1-C (FIG. 1(c)) (each 1 μM) and TNF-alpha was added (final concentration: 10 ng/mL) to induce apoptosis. The apoptosis and pan-caspase inhibitor z-vad (final concentration: 50 μM) and the necroptosis inhibitor Necrostatin-1 (Nec-1; final concentration: 5 μM) were used for comparison. Control wells were established with vehicle only (DMSO), with and without treatment with TNF-alpha to induce apoptosis. Cells were incubated, and cell survival was detected and quantified. Percentage cell survival after TNF-alpha-induced apoptosis is shown (error bars indicate standard deviation (SD)).
Briefly, SH-SY5Y cells were propagated and seeded in 96-well plates, together with the compound to be tested (1 μM), generally as described in Example B.1, except they were seeded at 1,000 cell/well and instead of BSO, TNF-alpha (Invitrogen) was added to a final concentration of 10 ng/mL to induce apoptosis. The apoptosis and pan-caspase inhibitor Z-VAD-fmk (Enzo Life Science; final concentration 50 μM) and the necroptosis inhibitor Necrostatin-1 (Nec-1; Enzo Life Science; final concentration 5 μM) were used for comparison. Control wells were established with vehicle only (DMSO), with and without treatment with TNF-alpha to induce apoptosis. Cells were incubated, and cell survival was detected and quantified as described in Example B.1.

A further test relates to C57BL/6 mice. In words: Traumatic brain injury (controlled cortical impact) animal model (Example C.5). It counts as in vivo, mouse. As to conditions: TBI (CCI), 24 h after CCI, compared to vehicle control, FIG. 4. The procedure:
FIG. 4: Efficiency of a compound of the invention in an animal model of traumatic brain injury.
Briefly, to test such utility of compounds disclosed herein, male C57BL/6 mice are anesthetised prior to the induction of trauma. Core body temperature is maintained at 37° C. using a feedback-controlled heating pad connected to a rectal probe. To induce trauma, a craniotomy is prepared over the right parietal cortex. Controlled cortical impact (CCI) is delivered perpendicular to the surface of the brain with a custom-made CCI applicator for mice using the following parameters: 8 m/s velocity, 3 mm diameter, 1 mm brain displacement and 150 ms duration. Following CCI, the skull is closed by affixing the removed bone flap using veterinary-grade tissue glue (Vetbond, 3M, St. Paul, Minn.). Compounds are administered at 1 mg/Kg or 10 mg/Kg (dissolved in 40% PEG) 15 minutes after TBI induction and 40% PEG is included as vehicle control. The animals are recovered from anesthesia in an incubator heated to 33° C. Animals are sacrificed and the brain is removed 24 h after CCI and immediately frozen on crushed dry ice and stored at −80° C. […] The sections are stained with cresyl violet for quantifying the area of contused brain, and contusion volume is calculated and the effect of the compounds tested observed following analysis of such data.

Test [1] deals with human neuroblastoma cell line SH-SY5Y. Nature of the test: Inhibition of BSO-induced non-apoptotic cell death (Example B.1). To be noted: SH-SY5Y cells, 72 hours. It counts as cell-based. The method, boiled down: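 SH-SY5Y cells exposed to 50 μM BSO together with compound (0.5 pM–100 μM, triplicate) for 72 h at 37°C, 5% CO2. Survival measured by AquaBluer fluorescence (ex 530–560/em 590 nm), normalised to percent surviving cells, and IC50 derived.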

In test [2] the test system is mouse hippocampal cell line (Ht22). Nature of the test: Inhibition of glutamate-induced non-apoptotic cell death (Example B.2). To be noted: HT-22, Ht22 cells. The test is classed as cell-based. The method, boiled down:
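Ht22 cells (2,000/well, DMEM/10% FBS) seeded together with 5 mM glutamate and compound (0.5 pM to 100 μM, triplicate), incubated 72 h at 37 °C/5% CO2. Cell survival then quantified; glutamate alone as negative control, alpha-tocopherol as positive control.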

Like-named read-outs stand apart in the source and are kept apart here.

For the compound `Clc1cccc(CNC2=Nc3ccccc3NC23CCNCC3)c1` [N-2], the “Percentage cell survival after TNF-alpha-induced apoptosis” value in the test with SH-SY5Y cells was “Non-inhibition of apoptotic cell-death”. In addition, the “contusion volume in the brains of mice following traumatic brain injury” value in the test on C57BL/6 mice was “trend of a (non-significant) positive effect”. Besides, the IC50 was under 20 nM in test [1] (50 μM BSO, read-out: SH-SY5Y/BSO IC50); 2.81 nM in test [1] (BSO 50 μM, cell survival (AquaBluer), read-out: SH-SY5Y/BSO (Example B.1) IC50); about 10 nM in test [2] (glutamate 5 mM, 72 hours, cell survival, read-out: Ht22/GLU (Example B.2) IC50); under 200 nM in test [2] (glutamate-induced cell death, read-out: Ht22/GLU).
